Key:
[1] = target: T1, GR (Homo sapiens, UniProt P04150); experiment: Transrepression assay, PMA-induced MMP1 promoter luciferase in HeLa cells; format: cell-based; set-up: endogenous in cells; host or cells: HeLa (ATCC) stably expressing MMP1- or MMTV-promoter luciferase; conditions: for EC50: 18 h, geometric mean
T1 sequence (P04150 1-777): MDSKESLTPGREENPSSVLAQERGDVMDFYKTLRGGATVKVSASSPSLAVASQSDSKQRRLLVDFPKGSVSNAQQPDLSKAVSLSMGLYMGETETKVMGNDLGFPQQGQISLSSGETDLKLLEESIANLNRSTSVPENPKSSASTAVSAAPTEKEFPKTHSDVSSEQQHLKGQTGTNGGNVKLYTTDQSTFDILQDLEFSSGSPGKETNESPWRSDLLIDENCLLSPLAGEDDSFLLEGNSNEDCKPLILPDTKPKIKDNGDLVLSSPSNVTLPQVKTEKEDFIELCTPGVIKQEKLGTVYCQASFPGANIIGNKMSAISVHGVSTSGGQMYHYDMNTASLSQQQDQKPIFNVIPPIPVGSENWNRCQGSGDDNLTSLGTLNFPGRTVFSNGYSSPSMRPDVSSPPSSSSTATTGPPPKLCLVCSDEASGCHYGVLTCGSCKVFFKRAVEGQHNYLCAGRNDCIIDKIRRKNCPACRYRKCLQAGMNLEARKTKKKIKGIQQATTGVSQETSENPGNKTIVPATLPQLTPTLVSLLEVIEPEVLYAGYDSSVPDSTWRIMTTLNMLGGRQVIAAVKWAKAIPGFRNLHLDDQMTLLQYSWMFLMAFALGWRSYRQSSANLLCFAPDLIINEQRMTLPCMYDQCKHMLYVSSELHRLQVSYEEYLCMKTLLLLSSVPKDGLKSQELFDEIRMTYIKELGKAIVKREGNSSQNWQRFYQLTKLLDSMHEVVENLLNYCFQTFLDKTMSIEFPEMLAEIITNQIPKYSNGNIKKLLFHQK
Method: Assays were adopted from a method reported by Schäcke et al.[39] and HeLa cells were obtained from the American Type Culture Collection (ATCC). Transrepression assay: A HeLa cell line stably expressing luciferase under the control of the human Matrix Metallopeptidase 1 (MMP1) promoter was generated. Upon binding to the GR, […], preventing it from binding the MMP1 promoter, resulting in inhibition of luciferase transcription and activity. Briefly, cells were incubated in culture medium containing charcoal-filtered fetal bovine serum with 5 nM PMA (phorbol 12-myristate 13-acetate) for 18 h with or without test compounds. Then, luciferase activity was detected luminometrically after addition of specific substrate to the cells.
IC50 of test compounds was determined by 10-point titrations in duplicates. IC50 values and other parameters were calculated by sigmoidal curve fitting in Assay Explorer.

[2] = system: spleen weight, plasma osteocalcin, body weight; experiment: TPA-induced skin inflammation in mice, systemic side effects; format: in vivo, mouse; conditions: for Reduction of body weight gain, spleen weight, and plasma osteocalcin levels: indicating systemic exposure; for Osteocalcin concentration ID50 / Osteocalcin concentration Imax: plasma; for Spleen weight ID50 / Spleen weight Imax: topical; for Suppression of osteocalcin levels at efficacious doses on skin inflammation: mouse TPA model
Method: Female Balb/c mice of 7 to 8 weeks old were obtained from Charles River, Germany and acclimatized for at least 1 week. Skin inflammation was induced by repeated topical application of TPA (20 μL of 0.01% TPA in acetone; 10 μL to each side of ear) on days 1, 3, 5, 8 and 10.
Treatments were performed by topical application of either vehicle (90% acetone, 10% transcutol), Treatments were applied twice daily on days 8, 9, 10, and once on day 11 (20–10 μL to each side of ear) with at least 5 h between the first and second treatment. TPA challenge on days 8 and 10 was performed at least 1 h after the first treatment. On day 11, animals were sacrificed 2 h after the last dosing. Blood was sampled by cardiac puncture from animals anaesthetized with isoflurane. Thereafter, ear biopsies were taken with a biopsy punch (8 mm diameter), weighed and stored at – 80 °C. Plasma osteocalcin levels were analyzed by EIA (rat-MID, IDS, UK). Effective inhibitory doses (ID50) were determined from a sigmoid I(max) model in Phoenix64, Pharsight, Certara. Therapeutic Index (TI) was calculated either as ID50 for spleen weight reduction or ID50 for blood osteocalcin concentrations, divided by ID50 for ear weight reduction.

[3] = system: TXNIP mRNA; experiment: Human skin explant, TXNIP gene expression; format: cell-based; conditions: human skin explants, topical, 24 h; for TXNIP Relative ED50: weighted geometric mean ± SD
Method: NativeSkin models (NS002) were purchased from Genoskin, France. Human skin samples from abdominal reduction surgery were obtained by Genoskin from donors upon written informed consent. Full ethical approval for the study protocol was obtained from the French ethical research committee (Comité de Protection des Personnes), and authorization was given by the French Ministry of Research. The study was conducted according to the Declaration of Helsinki. 8 mm punch biopsies were excised and embedded in a fibrin-based matrix in transwells and a silicone ring was firmly attached to the surface covering the outer edge of the skin biopsy to prevent lateral diffusion of topically applied formulations. Skin models were cultured in a defined hydrocortisone- and serum-free medium provided by Genoskin.
LEO 134310 and reference glucocorticoids were dissolved in propylene carbonate and tested at 4 concentrations in five- or tenfold titrations. Compounds were applied in duplicates or triplicates on the skin surface (0.5 cm^2) in a volume of 2 µL and incubated for 24 h. Vehicle and untreated samples were included for basal level of expression.
RNA was extracted and qPCR was performed using TaqMan gene expression assays (FKBP5-Hs01561006_m1, TSC22D3 (GILZ)-Hs00608272_m1, TXNIP-Hs01006900_g1, ACTB-Hs99999903_m1, PPIA-Hs99999904_m1, GAPDH-Hs99999905_m1). Gene expression of FKBP5,TSC22D3 (GILZ), and TXNIP was normalized to the geometric mean of the reference genes ACTB, PPIA and GAPDH.
Doses were expressed as compound (API) concentrations (µg/mL) in the applied formulations. Relative upregulation of FKBP5 was estimated as − fold to vehicle treated control. Effective doses (Emax and ED50) were determined from a sigmoid Emax model in Phoenix64 version 8.0, Pharsight, Certara. Mean values and standard deviation of Emax and ED50 were calculated by weighing individual experiments based on the intra- and inter-experiment variability.

[4] = TPA mouse model, CV (%) in brackets

CCCCC(=O)O[C@]1(C(=O)CO)[C@@H](C)C[C@H]2[C@@H]3CCC4=CC(=O)C=C[C@]4(C)[C@@]3(F)[C@@H](O)C[C@@]21C [BMV, Betamethasone Valerate]
Emax [1]: 78%
EC50 [1]: 0.57 nM
Therapeutic index (Osteocalcin ID50/Ear ID50) ([2]; TPA mouse model): 39
Therapeutic index (Spleen ID50/Ear ID50) ([2]; TPA mouse model): 21
Reduction of body weight gain, spleen weight, and plasma osteocalcin levels ([2]; TPA mouse model): dose-dependent reduction
Osteocalcin concentration ID50 [2, 4]: 200 (24) µg/mL
Osteocalcin concentration Imax [2, 4]: 74 (10) %
Spleen weight ID50 [2, 4]: 110 (25) µg/mL
Spleen weight Imax [2, 4]: 58 (9) %
Suppression of osteocalcin levels at efficacious doses on skin inflammation [2]: did
TXNIP Emax [3]: 17 ± 17 fold to control
TXNIP Relative ED50 [3]: 52 ± 15 µg/mL

C[C@H](NC(=O)[C@H]1CCCO1)[C@H](Oc1ccc(C(=O)O[C@H]2CCCN(C(=O)[C@H]3COC(=O)C3)C2)cc1)c1ccc(C2CC2)cc1 [LEO 134310]
Transrepression Emax [1]: 100%
EC50 [1]: 1.2 nM
Higher therapeutic index (osteocalcin ID50 to ear weight ID50) compared to CP and BMV ([2]; TPA mouse model): > 5 fold
Higher therapeutic index (spleen weight ID50 to ear weight ID50) compared to CP and BMV ([2]; TPA mouse model): 2 fold
Therapeutic index (Osteocalcin ID50/Ear ID50) ([2]; TPA mouse model): > 200
Therapeutic index (Spleen ID50/Ear ID50) ([2]; TPA mouse model): 49
Reduction of body weight gain, spleen weight, and plasma osteocalcin levels ([2]; TPA mouse model): not—or only to a lesser extent
Spleen weight Imax [2, 4]: 42 (56) %
Spleen weight ID50 (extrapolated) ([2]; TPA mouse model, ID50 could not be determined, value extrapolated, CV (%) in brackets): 25,000 (110) µg/mL
Suppression of osteocalcin levels at efficacious doses on skin inflammation [2]: did not suppress osteocalcin levels
TXNIP Emax [3]: 19 ± 7.3^NS fold to control
TXNIP Relative ED50 [3]: 110 ± 300^NS µg/mL

CCC(=O)O[C@]1(C(=O)CCl)[C@@H](C)C[C@H]2[C@@H]3CCC4=CC(=O)C=C[C@]4(C)[C@@]3(F)[C@@H](O)C[C@@]21C [CP, Clobetasol Propionate]
Emax [1]: 90%
EC50 [1]: 0.064 nM
Therapeutic index (Osteocalcin ID50/Ear ID50) ([2]; TPA mouse model): 43
Therapeutic index (Spleen ID50/Ear ID50) ([2]; TPA mouse model): 17
Reduction of body weight gain, spleen weight, and plasma osteocalcin levels ([2]; TPA mouse model): dose-dependent reduction
Osteocalcin concentration ID50 [2, 4]: 64 (17) µg/mL
Osteocalcin concentration Imax [2, 4]: 88 (4) %
Spleen weight ID50 [2, 4]: 26 (27) µg/mL
Spleen weight Imax [2, 4]: 70 (8) %
Suppression of osteocalcin levels at efficacious doses on skin inflammation [2]: did
TXNIP Emax [3]: 19 ± 8.5^NS fold to control
TXNIP Relative ED50 [3]: 1.3 ± 0.33 µg/mL

Reference: article PMC8795149, “Characterization of a novel non-steroidal glucocorticoid receptor agonist optimized for topical treatment” (Scientific Reports, 2022)
